Test: Solubility test of ginsenoside compound K depending on type of solvent
Format: physicochemical
Details: 95% of solvent and 5% of ginsenoside compound K
Experimental: The solubility of ginsenoside compound K was tested to be checked for representative polar and nonpolar solvents mainly used in cosmetics.

CC(C)=CCC[C@](C)(O[C@@H]1O[C@H](CO)[C@@H](O)[C@H](O)[C@H]1O)[C@H]1CC[C@]2(C)[C@@H]1[C@H](O)C[C@@H]1[C@@]3(C)CC[C@H](O)C(C)(C)[C@@H]3CC[C@]12C [ginsenoside compound K, 20-O-β-D-glucopyranosyl-20(S)-protopanaxadiol]
Solubility (60° C.) (solvent Ethanol): Soluble | Solubility (room temperature) (solvent Ethanol): Soluble | Solubility (60° C.) (solvent Glycerin): Insoluble | Solubility (room temperature) (solvent Glycerin): Insoluble | Solubility (60° C.) (solvent Mineral Oil): Insoluble | Solubility (room temperature) (solvent Mineral Oil): Insoluble | Solubility (60° C.) (solvent Non-Polar Ester Oil): Insoluble | Solubility (room temperature) (solvent Non-Polar Ester Oil): Insoluble | Solubility (60° C.) (solvent Polar Ester Oil): Insoluble | Solubility (room temperature) (solvent Polar Ester Oil): Insoluble | Solubility (60° C.) (solvent Silicone): Insoluble | Solubility (room temperature) (solvent Silicone): Insoluble | Solubility (60° C.) (solvent Surfactant): Insoluble | Solubility (room temperature) (solvent Surfactant): Insoluble | Solubility (60° C.) (solvent Vegetable Oil): Insoluble | Solubility (room temperature) (solvent Vegetable Oil): Insoluble | Solubility (60° C.) (solvent Water): Insoluble | Solubility (room temperature) (solvent Water): Insoluble

Source: patent US20210330566A1, “WATER-SOLUBILIZED MIXTURE OF GINSENOSIDE COMPOUND K AND METHOD OF WATERSOLUBILIZING GINSENOSIDE COMPOUND K” (VENN SKINCARE, INC., priority 2018, published 2021)
